Source: US20110070232A1, “Combination Therapy with an Antitumor Alkaloid” (Pharma Mar, S.A., priority 2008, published 2011)
Like-named read-outs stand apart in the source and are kept apart here.

What was measured:
Assay type in all cases: in vivo, mice
BxPC-3 tumors = conditions: mg/kg/day: PM00104 0.90 IV, gemcitabine 180 IP
Protocol: Female CB17.SCID mice (Charles River Lab.) were utilized for all experiments. Animals were housed in ventilated rack caging with food and water ad libitum. The mice were acclimated for at least 5 days prior to tumor implantation with a tumor cell suspension.
The tumor model used in these studies was BxPC-3 cell line, which was obtained from the ATCC (Manassas, Va.).
Bacterial cultures were performed on aliquots of the cells prepared for implantation.
Treatments were initiated on DPI 14.
(§1) Tumor size measurements were recorded twice weekly from the treatment initiation until the termination of the study.
(§2) Mean, standard deviation and standard error of the mean were determined for tumor volume for all animal groups at all assessments. Student's t test was performed on tumor volumes at each measurement day, including at the end of the study, to determine whether there were any statistically significant differences between combination treatment groups and single monotherapy treatment groups.

NCI-H460 tumors = conditions: PM00104 0.9 mg/kg/day IV and/or Gemcitabine 180 mg/kg/day IP
Excerpt: (§3) Female athymic nude mice (Harlan Sprague Dawley, Madison, Wis.) were utilized for all experiments. Animals were housed in ventilated rack caging with food and water ad libitum. The mice were acclimated for at least 5 days prior to tumor implantation.
The tumor model used in this study was NCI-H460 cell line which is a human NSCLC cell line obtained from the ATCC (Manassas, Va.). […] Cells from in vitro passage 9 were those implanted SC into study mice.
Treatments were initiated on DPI 8.
Tumor size measurements were recorded 2-3 times/week from the treatment initiation until the termination of the study.
as §2

MRI-H-254 tumors = conditions: for % T/C on day 17 / % T/C on day 20 / % T/C on day 24 / % T/C on day 27 / % T/C on day 32 / % T/C on day 35 / % T/C on day 39 / % T/C on day 47: doxorubicin 6 IP
Protocol: as §3, with “implantation with tumor fragments. The Vehicle Control group contained 11 mice, groups 2-6 contained 8 mice/group, and the rest of groups contained 9 mice/group.” for “implantation.”
This cell line was grown and implanted to the animals as described in Example 11.
Tumor measurements were determined as disclosed in Example 4. […] Treatments were initiated on DPI 17.
PM00104 was provided in the form of vials of lyophilized PM00104 powder which was reconstituted with water for injection.
as §1, §2
The definition and criteria for the evaluation of potentiation and the degree of additivity for the combination therapy were the same as those disclose in Example 4.

Hs746T tumors = tested on: Hs746T tumors
Excerpt: Female athymic nude mice (Harlan Sprague Dawley, Madison, Wis.) were utilized for all experiments. Animals were housed in ventilated rack caging with food and water ad libitum. The mice were acclimated for at least 5 days prior to tumor implantation with a tumor cell suspension.
The tumor model used in these studies was Hs746T cell line, which was obtained from the ATCC (Manassas, Va.).
Treatments were initiated on DPI 15.
5-FU was provided as a solution which was further diluted with water for injection.
as §1, §2

[1] = PM00104 0.23 IV, paclitaxel 12.5 IP mg/kg/day (G4, G11, G12)
[2] = PM00104 0.45 IV, paclitaxel 12.5 IP mg/kg/day (G3, G9, G10)
[3] = PM00104 0.90 IV, paclitaxel 12.5 IP mg/kg/day (G2, G5, G6, G7, G8)
[4] = PM00104 0.9, 5-FU 50 (DPI 15) then 100 (DPI 22 & 29), irinotecan 20, doxorubicin 6 mg/kg/day

COc1c(C)cc2c(c1O)[C@@H]1[C@@H]3Cc4c(OC(C)=O)c(C)c5c(c4[C@H](CNC(=O)/C=C/c4cccc(C(F)(F)F)c4)N3[C@@H](O)[C@H](C2)N1C)OCO5 [PM00104]
% Inhibition (BxPC-3 tumors; day 14): −0.9%
% T/C on day (BxPC-3 tumors; day 14): 100.9%
% Inhibition (BxPC-3 tumors; day 16): −40.3%
% T/C on day (BxPC-3 tumors; day 16): 140.3%
% Inhibition (BxPC-3 tumors; day 19): −26.1%
% T/C on day (BxPC-3 tumors; day 19): 126.1%
% Inhibition (BxPC-3 tumors; day 22): −16.5%
% T/C on day (BxPC-3 tumors; day 22): 116.5%
% Inhibition (BxPC-3 tumors; day 26): 7.8%
% T/C on day (BxPC-3 tumors; day 26): 92.2%
% Inhibition (BxPC-3 tumors; day 29): −6.3%
% T/C on day (BxPC-3 tumors; day 29): 106.3%
% Inhibition (BxPC-3 tumors; day 34): −16.8%
% Inhibition (BxPC-3 tumors; day 40): −26.3%
% T/C on day (BxPC-3 tumors; day 40): 126.3%
% T/C on day 8 (NCI-H460 tumors): 103.0%
% T/C on day 11 (NCI-H460 tumors): 98.5%
% T/C on day 14 (NCI-H460 tumors): 85.6%
% T/C on day 18 (NCI-H460 tumors): 90.8%
% T/C on day 21 (NCI-H460 tumors): 81.2%
% T/C on day 25 (NCI-H460 tumors): 76.7%
% T/C on day 28 (NCI-H460 tumors): 77.3%
% T/C on day 17 (MRI-H-254 tumors; [1]): 97.5%
% T/C on day 20 (MRI-H-254 tumors; [1]): 113.0%
% T/C on day 24 (MRI-H-254 tumors; [1]): 89.9%
% T/C on day 27 (MRI-H-254 tumors; [1]): 75.9%
% T/C on day 32 (MRI-H-254 tumors; [1]): 72.7%
% T/C on day 35 (MRI-H-254 tumors; [1]): 62.4%
% T/C on day 39 (MRI-H-254 tumors; [1]): 57.6%
% T/C on day 47 (MRI-H-254 tumors; [1]): 66.8%
% T/C on day 17 (MRI-H-254 tumors; [2]): 100.0%
% T/C on day 20 (MRI-H-254 tumors; [2]): 109.2%
% T/C on day 24 (MRI-H-254 tumors; [2]): 91.3%
% T/C on day 27 (MRI-H-254 tumors; [2]): 71.0%
% T/C on day 32 (MRI-H-254 tumors; [2]): 51.8%
% T/C on day 35 (MRI-H-254 tumors; [2]): 38.4%
% T/C on day 39 (MRI-H-254 tumors; [2]): 31.8%
% T/C on day 47 (MRI-H-254 tumors; [2]): 21.5%
% T/C on day 17 (MRI-H-254 tumors; [3]): 98.5%
% T/C on day 20 (MRI-H-254 tumors; [3]): 95.6%
% T/C on day 24 (MRI-H-254 tumors; [3]): 56.9%
% T/C on day 27 (MRI-H-254 tumors; [3]): 46.4%
% T/C on day 32 (MRI-H-254 tumors; [3]): 31.2%
% T/C on day 35 (MRI-H-254 tumors; [3]): 22.6%
% T/C on day 39 (MRI-H-254 tumors; [3]): 14.5%
% T/C on day 47 (MRI-H-254 tumors; [3]): 9.5%
% Inhibition (MRI-H-254 tumors; day 14, PM00104 0.23, doxorubicin 6, paclitaxel 12.5 mg/kg/day): 2.5%
% Inhibition (MRI-H-254 tumors; day 14, PM00104 0.45, doxorubicin 6, paclitaxel 12.5 mg/kg/day): 0.0%
% Inhibition (MRI-H-254 tumors; day 14, PM00104 0.90, paclitaxel 12.5 mg/kg/day): 1.5%
% Inhibition (MRI-H-254 tumors; day 14, PM00104 0.9 and doxorubicin 6 mg/kg/day): 1.5%
% Inhibition (MRI-H-254 tumors; day 20, PM00104 0.23, doxorubicin 6, paclitaxel 12.5 mg/kg/day): −13.0%
% Inhibition (MRI-H-254 tumors; day 20, PM00104 0.45, doxorubicin 6, paclitaxel 12.5 mg/kg/day): −9.2%
% Inhibition (MRI-H-254 tumors; day 20, PM00104 0.90, paclitaxel 12.5 mg/kg/day): 4.4%
% Inhibition (MRI-H-254 tumors; day 20, PM00104 0.9 and doxorubicin 6 mg/kg/day): 4.4%
% Inhibition (MRI-H-254 tumors; day 24, PM00104 0.23, doxorubicin 6, paclitaxel 12.5 mg/kg/day): 10.1%
% Inhibition (MRI-H-254 tumors; day 24, PM00104 0.45, doxorubicin 6, paclitaxel 12.5 mg/kg/day): 8.7%
% Inhibition (MRI-H-254 tumors; day 24, PM00104 0.90, paclitaxel 12.5 mg/kg/day): 43.1%
% Inhibition (MRI-H-254 tumors; day 24, PM00104 0.9 and doxorubicin 6 mg/kg/day): 43.1%
% Inhibition (MRI-H-254 tumors; day 27, PM00104 0.23, doxorubicin 6, paclitaxel 12.5 mg/kg/day): 24.1%
% Inhibition (MRI-H-254 tumors; day 27, PM00104 0.45, doxorubicin 6, paclitaxel 12.5 mg/kg/day): 29.0%
% Inhibition (MRI-H-254 tumors; day 27, PM00104 0.90, paclitaxel 12.5 mg/kg/day): 53.6%
% Inhibition (MRI-H-254 tumors; day 27, PM00104 0.9 and doxorubicin 6 mg/kg/day): 53.6%
% Inhibition (MRI-H-254 tumors; day 32, PM00104 0.23, doxorubicin 6, paclitaxel 12.5 mg/kg/day): 27.3%
% Inhibition (MRI-H-254 tumors; day 32, PM00104 0.45, doxorubicin 6, paclitaxel 12.5 mg/kg/day): 48.2%
% Inhibition (MRI-H-254 tumors; day 32, PM00104 0.90, paclitaxel 12.5 mg/kg/day): 68.8%
% Inhibition (MRI-H-254 tumors; day 32, PM00104 0.9 and doxorubicin 6 mg/kg/day): 68.8%
% Inhibition (MRI-H-254 tumors; day 35, PM00104 0.23, doxorubicin 6, paclitaxel 12.5 mg/kg/day): 37.6%
% Inhibition (MRI-H-254 tumors; day 35, PM00104 0.45, doxorubicin 6, paclitaxel 12.5 mg/kg/day): 61.6%
% Inhibition (MRI-H-254 tumors; day 35, PM00104 0.90, paclitaxel 12.5 mg/kg/day): 77.4%
% Inhibition (MRI-H-254 tumors; day 35, PM00104 0.9 and doxorubicin 6 mg/kg/day): 77.4%
% Inhibition (MRI-H-254 tumors; day 39, PM00104 0.23, doxorubicin 6, paclitaxel 12.5 mg/kg/day): 42.4%
% Inhibition (MRI-H-254 tumors; day 39, PM00104 0.45, doxorubicin 6, paclitaxel 12.5 mg/kg/day): 68.2%
% Inhibition (MRI-H-254 tumors; day 39, PM00104 0.90, paclitaxel 12.5 mg/kg/day): 85.5%
% Inhibition (MRI-H-254 tumors; day 39, PM00104 0.9 and doxorubicin 6 mg/kg/day): 85.5%
% Inhibition (MRI-H-254 tumors; day 47, PM00104 0.23, doxorubicin 6, paclitaxel 12.5 mg/kg/day): 33.2%
% Inhibition (MRI-H-254 tumors; day 47, PM00104 0.45, doxorubicin 6, paclitaxel 12.5 mg/kg/day): 78.5%
% Inhibition (MRI-H-254 tumors; day 47, PM00104 0.90, paclitaxel 12.5 mg/kg/day): 90.5%
% Inhibition (MRI-H-254 tumors; day 47, PM00104 0.9 and doxorubicin 6 mg/kg/day): 90.5%
% T/C on day 15 (Hs746T tumors; [4]): 106.6%
% T/C on day 19 (Hs746T tumors; [4]): 55.8%
% T/C on day 22 (Hs746T tumors; [4]): 60.9%
% T/C on day 26 (Hs746T tumors; [4]): 54.2%
% T/C on day 29 (Hs746T tumors; [4]): 58.6%
% T/C on day 33 (Hs746T tumors; [4]): 80.8%
% Inhibition (Hs746T tumors; day 15, PM00104 0.9 and doxorubicin 6 mg/kg/day): −6.6%
% Inhibition (Hs746T tumors; day 15, PM00104 0.9 and irinotecan 20 mg/kg/day): −6.6%
% Inhibition (Hs746T tumors; day 15, mg/kg/day: PM00104 0.90 IV, 5-FU 50 at DPI 15 and 100 at DPI 22 & 29 IP): −6.6%
% Inhibition (Hs746T tumors; day 19, PM00104 0.9 and doxorubicin 6 mg/kg/day): 44.2%
% Inhibition (Hs746T tumors; day 19, PM00104 0.9 and irinotecan 20 mg/kg/day): 44.2%
% Inhibition (Hs746T tumors; day 19, mg/kg/day: PM00104 0.90 IV, 5-FU 50 at DPI 15 and 100 at DPI 22 & 29 IP): 44.2%
% Inhibition (Hs746T tumors; day 22, PM00104 0.9 and doxorubicin 6 mg/kg/day): 39.1%
% Inhibition (Hs746T tumors; day 22, PM00104 0.9 and irinotecan 20 mg/kg/day): 39.1%
% Inhibition (Hs746T tumors; day 22, mg/kg/day: PM00104 0.90 IV, 5-FU 50 at DPI 15 and 100 at DPI 22 & 29 IP): 39.1%
% Inhibition (Hs746T tumors; day 26, PM00104 0.9 and doxorubicin 6 mg/kg/day): 45.8%
% Inhibition (Hs746T tumors; day 26, PM00104 0.9 and irinotecan 20 mg/kg/day): 45.8%
% Inhibition (Hs746T tumors; day 26, mg/kg/day: PM00104 0.90 IV, 5-FU 50 at DPI 15 and 100 at DPI 22 & 29 IP): 45.8%
% Inhibition (Hs746T tumors; day 29, PM00104 0.9 and doxorubicin 6 mg/kg/day): 41.4%
% Inhibition (Hs746T tumors; day 29, PM00104 0.9 and irinotecan 20 mg/kg/day): 41.4%
% Inhibition (Hs746T tumors; day 29, mg/kg/day: PM00104 0.90 IV, 5-FU 50 at DPI 15 and 100 at DPI 22 & 29 IP): 41.4%
% Inhibition (Hs746T tumors; day 33, PM00104 0.9 and doxorubicin 6 mg/kg/day): 19.2%
% Inhibition (Hs746T tumors; day 33, PM00104 0.9 and irinotecan 20 mg/kg/day): 19.2%
% Inhibition (Hs746T tumors; day 33, mg/kg/day: PM00104 0.90 IV, 5-FU 50 at DPI 15 and 100 at DPI 22 & 29 IP): 19.2%
